The subject of data set [1] is partially purified ferritin-protein from K562 nuclei. Nature of the data set: Competition gel-shift assay with labeled wt −164/−128 oligonucleotide. In kind it is binding, human. The settings on record: for excess of unlabeled oligonucleotide needed for significant competition with labeled wt sequence: heated K562 nuclear extract protein, FIG. 4B/4C. As to the method:
Preparation of nuclear extracts. Each nuclear extract preparation was made from two liters of K562 cells (1×10^6 cells/ml) using the procedure of Dignam, Lebovitz, and Roeder (Dignam, J. D., Lebovitz, R. M. & Roeder, R. G. (1983) Nucleic Acids Res 11, 1475-89). Protein content of the extracts ranged from 3 to 6 mg/ml. Extracts enriched 80-90% in ferritin-like protein(s) were prepared by treating the crude extracts with proteinase K and/or heat at 75° C. (Atkinson, B. G., Dean, R. L., Tomlinson, J. & Blaker, T. W. (1989) Biochem Cell Biol 67, 52-7).
Gel mobility shift assays. Gel retardation assays (i.e., gel shifts) were used to determine DNA binding of the extract proteins to the Rsa I (95 bp) fragment and synthetic oligonucleotides (Berg et al., (1989) Nucleic Acids Res 17, 8833-52; Fried & Crothers (1981) Nucleic Acids Res 9, 6505-25). Each reaction contained 0.5-2 ng of DNA, 1.0-5.0 ug of extract protein, 1.0-5.0 ug of poly dI:poly dC, 100 mM KCl, and binding buffer (Berg et al., (1989) Nucleic Acids Res 17, 8833-52). Unlabeled competitor oligonucleotides ranged from 15- to 2000-fold molar excess and were included in the reaction mixture with the probe before adding protein. Gels used for retardation assays were 4%, 5%, or 6% acrylamide and the running buffer was low ionic strength TAE (Berg et al., (1989) Nucleic Acids Res 17, 8833-52).
Definition of the binding site with competition gel shifts. To further localize the binding of ferritin, the 37 bp oligonucleotide was mutated in different places, replacing six nucleotides at a time with all A's, all C's, or all G's, with complementary nucleotide replacements in the opposing strand (FIG. 4A). A competition gel shift assay was done with the partially purified protein from heated K562 nuclear extract, in which each of the unlabeled mutant oligos as well as the native sequence was competed against the 32-P-labeled native sequence for binding. All mutants competed for binding as well as the native sequence except those mutated in the −153/−148 region, i.e., mutated in the sequence CAGTGC [SEQ ID NO: 6] (e.g., FIG. 4D). […]

For data set [2], the system named is distal promoter of the human β-globin gene (−222/−128). Description: Gel mobility shift assay with distal promoter restriction fragment. The format is binding. The settings on record: gel retardation assay, FIG. 2a left side. The text has this: Proteins and antibodies. Ferritins from human liver (enriched in L chains) and from human heart (enriched in H chains), human transferrin (iron saturated) and apotransferrin, polyclonal (rabbit) antiserum to human spleen ferritin and nonimmune rabbit serum were obtained from Sigma Chemical Company.
Restriction fragments and oligonucleotides. The 5′ region of the human β-globin gene (from −610 to +20), previously cloned in pSV2CAT, was cut into three fragments by sequential digestions with Hind III and Rsa I. The three fragments, electroeluted from agarose (Maniatis, T., Fritsch, E. F. & Sambrook, J. (1989) Molecular Cloning: A Laboratory Manual (Cold Spring Harbor Laboratory, Cold Spring Harbor, N.Y.), were 416 bp (−638/−223), 147 bp (−127/+20, containing the proximal promoter region), and 95 bp (the Rsa fragment, −222/−128, containing mainly distal promoter sequences). The three fragments were phenol/chloroform treated, dephosphorylated, and end-labelled with 32-P as described (Maniatis, T., Fritsch, E. F. & Sambrook, J. (1989) Molecular Cloning: A Laboratory Manual (Cold Spring Harbor Laboratory, Cold Spring Harbor, N.Y.); Kurien, B. T., Scofield, R. H., & Broyles, R. H. (1997) Anal Biochem 245, 123-126). […]

A further data set relates to acute sickle-cell crises. The settings on record: stated by The University of Maryland; cited from earlier work.
The test system of data set [3] is erythroid precursor cells from pediatric sickle cell disease patients. Nature of the data set: HbS-to-HbF switching in two-phase culture, HPLC of hemoglobins and immuno-HbF fluorescence. In kind it is cell-based, human. The settings on record: FIG. 23.
Data set [4] deals with endogenous ferritin-H gene expression in NT-2 (NTERA-2) stem cells. Nature of the data set: Western blot for ferritin-H in NT-2 cells. The settings on record: Western blot after 8 days in the presence of compound vs DMSO-control, FIG. 21. In kind it is cell-based, human. As to the method: Cell lines. Human NTERA-2 (NT-2) embryonal carcinoma stem cells (ATCC # CRL-1973) were cultured in DMEM medium with 10% FBS and antibiotics.
Western blots and quantification. Cell lysates (i.e., extracts of human NT-2 cells) were boiled for 3-5 minutes in SDS buffer, layered onto polyacrylamide gels and were run with SDS electrophoresis buffer at 90 volts for 30 minutes. Electrophoresed samples were then placed in 3% BSA buffer and transferred at 80 volts for 2 hours to blotting membranes. A blocking reaction was performed over night with blocking buffer from ECL advance kit (GE Healthcare Bio-Sciences, NJ), followed by incubation for 4 hours in BSA buffer with fluorescent secondary antibody (1:10000) and primary anti ferritin-H (anti-FtH) polyclonal antiserum (1:1000). Ferritin-H detection was achieved using the LI-COR apparatus to visualize the fuorescent bands and Odyssey software to quantify the stained bands of ferritin-H. Isolation and culture of human mononuclear cells and maturation of erythroid precursor cells are diagrammed in FIG. 22. Whole blood was obtained from pediatric sickle cell patients at the time of scheduled transfusion therapy under an approved IRB protocol. […]
For orientation: A western blot detects proteins with antibodies after separation by electrophoresis.

On to “mutant no. 4: double-stranded −164/−128 oligonucleotide mutated in the −153/−148 CAGTGC sequence, SEQ ID NO: 5 (AACTCCTAAGCAAAAAACAGAAGAGCCAAGGACAGGT; double-stranded competitor oligonucleotide, further chemistry not given here)”, for which the “concentration required for 50% inhibition of binding of labeled probe, relative to wt sequence” value in data set [1] (FIG. 4D) turned out to be 20 fold. In addition, the “excess of unlabeled oligonucleotide needed for significant competition with labeled wt sequence” value in data set [1] is 1,000 fold excess.
As to “transferrin: human transferrin, another iron-binding protein, Sigma”, the “binding to −222/−128 distal promoter fragment” value in data set [2] is reported as “did not bind”.
As to “wt: double-stranded wildtype −164/−128 β-globin promoter oligonucleotide, SEQ ID NO: 1 (AACTCCTAAGCCAGTGCCAGAAGAGCCAAGGACAGGT; complementary strand not cited, chemistry not fully specified; listed as Homo sapiens)”, the “excess of unlabeled oligonucleotide needed for significant competition with labeled wt sequence” value in data set [1] turned out to be 50 fold excess.
For the compound `NC(=O)NO` [Hydroxyurea], in the data set on acute sickle-cell crises, the “patients on whom the agent has no effect” value is 25%.
As to `CC1=CC(=O)CC(C)(C)C1(O)/C=C/C(C)=C\C(=O)O` (centres unmarked) [abscissic acid], in data set [3] (administered day 1 of phase II culture with rhEpo, HPLC, observed 23 days to 4 weeks after administration), the HbS-to-HbF hemoglobin switch entry was “total switch”. Moreover, the “cellular distribution of HbF production” value in data set [3] (immuno-HbF fluorescence) is “pancellular”. Also, in data set [4], the “ferritin-H expression in NT-2 cells” value was “activated ferritin-H expression”.

These data come from patent publication US9089521B2, “Method for regulating production of hemoglobin beta chains” (priority 2001, dated 2015).
